Measured values published in ChEMBL document CHEMBL5352463, “Synthesis of novel glutarimide ligands for the E3 ligase substrate receptor Cereblon (CRBN): Investigation of their binding mode and antiproliferative effects against myeloma cell lines” (Eur J Med Chem, 2023).
pIC50: −log10 of the molar value. Calls of active or inactive are those of the source. The calls are words filed in the database; no cut-off is given here.

target: Protein cereblon (Homo sapiens) (UniProt Q96SW2); assay: Binding affinity to human CRBN thalidomide binding domain by microscale thermophoresis analysis; settings: not given
Sequence (Q96SW2 whole entry, the tested form may be a part): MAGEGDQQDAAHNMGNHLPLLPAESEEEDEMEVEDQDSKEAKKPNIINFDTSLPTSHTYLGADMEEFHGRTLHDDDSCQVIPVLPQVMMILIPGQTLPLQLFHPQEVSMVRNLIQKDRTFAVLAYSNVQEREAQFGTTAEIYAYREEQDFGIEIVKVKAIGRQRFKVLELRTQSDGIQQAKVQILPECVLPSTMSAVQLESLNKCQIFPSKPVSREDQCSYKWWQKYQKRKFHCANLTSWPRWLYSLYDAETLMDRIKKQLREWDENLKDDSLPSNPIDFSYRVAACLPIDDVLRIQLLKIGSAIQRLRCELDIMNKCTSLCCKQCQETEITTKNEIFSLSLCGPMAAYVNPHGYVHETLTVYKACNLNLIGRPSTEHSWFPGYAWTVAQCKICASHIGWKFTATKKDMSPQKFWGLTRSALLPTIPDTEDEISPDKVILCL

Row | Structure (SMILES) | Activity
1 | CN1C(=O)CCC(CSc2ccc(Cl)cc2)C1=O (stereo unspecified) | inactive
2 | CN1C(=O)CCC(CSc2ccccc2)C1=O (stereo unspecified) | inactive
3 | O=C1CCC(CSc2ccccc2C(=O)O)C(=O)N1 (stereo unspecified) | inactive

test system: KMS-12-PE; assay: Antiproliferative activity against human KMS-12-PE cells assessed as inhibition of cell proliferation incubated for 48 hrs by CellTiter Glo luminescence based […]; type: functional; settings: not given

Row | Structure (SMILES) | pIC50
4 | COc1ccc(CS(=O)(=O)CC2CCC(=O)NC2=O)cc1 (stereo unspecified) | 5.23
5 | O=C1CCC(CS(=O)(=O)c2ccccc2)C(=O)N1 (stereo unspecified) | 5.22
6 | Cc1ccc(SCC2CCC(=O)NC2=O)cc1 (stereo unspecified) | 4.40
7 | Cn1cnnc1SCC1CCC(=O)NC1=O (stereo unspecified) | < 4.00
8 | COc1ccc(CSCC2CCC(=O)NC2=O)cc1 (stereo unspecified) | < 4.00
9 | Cc1ccnc(SCC2CCC(=O)NC2=O)n1 (stereo unspecified) | 4.43
10 | CN1C(=O)CCC(CSc2ccc(Cl)cc2)C1=O (stereo unspecified) | 4.34
11 | COC(=O)c1ccccc1SCC1CCC(=O)NC1=O (stereo unspecified) | 4.49
12 | O=C1CCC(CSc2ccc(Cl)cc2)C(=O)N1 (stereo unspecified) | 4.79
13 | O=C1CCC(CSc2ccc(F)cc2)C(=O)N1 (stereo unspecified) | 4.53
14 | O=C1CCC(CSc2ccccc2)C(=O)N1 (stereo unspecified) | 4.44
15 | O=C1CCC(CS(=O)(=O)c2ccc(F)cc2)C(=O)N1 (stereo unspecified) | 5.19
16 | O=C1CCC(N2C(=O)c3ccccc3C2=O)C(=O)N1 (stereo unspecified) [THALIDOMIDE] | < 4.12
17 | CN1C(=O)CCC(CSc2ccccc2)C1=O (stereo unspecified) | < 4.00
18 | O=C1CCC(CSc2ccc(Br)cc2)C(=O)N1 (stereo unspecified) | 4.89
19 | O=C1CCC(CSc2ncccn2)C(=O)N1 (stereo unspecified) | 4.44
20 | Cc1cc(C)c(SCC2CCC(=O)NC2=O)c(C)c1 (stereo unspecified) | 4.64
21 | O=C1CCC(CS(=O)(=O)Cc2ccccc2)C(=O)N1 (stereo unspecified) | 5.29
22 | Nc1ccc(SCC2CCC(=O)NC2=O)cc1 (stereo unspecified) | < 4.05
23 | O=C1CCC(CSc2cccc([N+](=O)[O-])c2)C(=O)N1 (stereo unspecified) | 4.87
24 | O=C1CCC(CS(=O)(=O)c2ccc(Cl)cc2)C(=O)N1 (stereo unspecified) | 5.23
25 | O=C1CCC(CSc2ccccc2[N+](=O)[O-])C(=O)N1 (stereo unspecified) | 4.88
26 | O=C1CCC(CSc2ccccc2C(=O)O)C(=O)N1 (stereo unspecified) | < 4.00
27 | Nc1ccccc1SCC1CCC(=O)NC1=O (stereo unspecified) | 4.41
28 | Cc1ccc(S(=O)(=O)CC2CCC(=O)NC2=O)cc1 (stereo unspecified) | 5.21
29 | O=C1CCC(CSc2ccccn2)C(=O)N1 (stereo unspecified) | 4.88
30 | Nc1cccc(SCC2CCC(=O)NC2=O)c1 (stereo unspecified) | < 4.05

test system: not listed separately; assay: Cytotoxicity against PBMC (unknown origin) cells assessed as inhibition of cell growth incubated for 48 hrs by CellTiter Glo luminescence based […]; type: toxicity; settings: not given

Row | Structure (SMILES) | IC50 at 48 h
31 | Nc1ccc(SCC2CCC(=O)NC2=O)cc1 (stereo unspecified) | > 200 µM
32 | Nc1ccccc1SCC1CCC(=O)NC1=O (stereo unspecified) | 71.8 µM
33 | Nc1cccc(SCC2CCC(=O)NC2=O)c1 (stereo unspecified) | > 200 µM

test system: MOLP-8; assay: cells; settings: Homo sapiens, MOLP-8, 48 h
Description: Antiproliferative activity against human MOLP8 cells assessed as inhibition of cell proliferation incubated for 48 hrs by CellTiter Glo luminescence based MTT assay

Row | Structure (SMILES) | pIC50
34 | COc1ccc(CS(=O)(=O)CC2CCC(=O)NC2=O)cc1 (stereo unspecified) | 5.20
35 | O=C1CCC(CS(=O)(=O)c2ccccc2)C(=O)N1 (stereo unspecified) | 5.24
36 | O=C1CCC(CSc2ccc([N+](=O)[O-])cc2)C(=O)N1 (stereo unspecified) | 5.07
37 | CC(=O)Nc1cccc(SCC2CCC(=O)NC2=O)c1 (stereo unspecified) | 4.31
38 | CC(=O)Nc1ccccc1SCC1CCC(=O)NC1=O (stereo unspecified) | 4.56
39 | Cc1ccc(SCC2CCC(=O)NC2=O)cc1 (stereo unspecified) | 4.42
40 | Cn1cnnc1SCC1CCC(=O)NC1=O (stereo unspecified) | < 4.00
41 | COc1ccc(CSCC2CCC(=O)NC2=O)cc1 (stereo unspecified) | 4.14
42 | Cc1ccnc(SCC2CCC(=O)NC2=O)n1 (stereo unspecified) | 4.92
43 | CN1C(=O)CCC(CSc2ccc(Cl)cc2)C1=O (stereo unspecified) | 4.09
44 | COC(=O)c1ccccc1SCC1CCC(=O)NC1=O (stereo unspecified) | 4.70
45 | O=C1CCC(CSc2ccc(Cl)cc2)C(=O)N1 (stereo unspecified) | 4.69
46 | O=C1CCC(CSc2ccc(F)cc2)C(=O)N1 (stereo unspecified) | 4.49
47 | O=C1CCC(CSc2ccccc2)C(=O)N1 (stereo unspecified) | 4.40
48 | O=C1CCC(CS(=O)(=O)c2ccc(F)cc2)C(=O)N1 (stereo unspecified) | 5.24
49 | O=C1CCC(N2C(=O)c3ccccc3C2=O)C(=O)N1 (stereo unspecified) [THALIDOMIDE] | < 4.12
50 | CN1C(=O)CCC(CSc2ccccc2)C1=O (stereo unspecified) | 4.07

Row | Structure (SMILES) | pIC50
51 | O=C1CCC(CSc2ccc(Br)cc2)C(=O)N1 (stereo unspecified) | 4.74
52 | O=C1CCC(CSc2ncccn2)C(=O)N1 (stereo unspecified) | 4.62
53 | Cc1cc(C)c(SCC2CCC(=O)NC2=O)c(C)c1 (stereo unspecified) | 4.68
54 | O=C1CCC(CS(=O)(=O)Cc2ccccc2)C(=O)N1 (stereo unspecified) | 5.26
55 | Nc1ccc(SCC2CCC(=O)NC2=O)cc1 (stereo unspecified) | 4.35
56 | O=C1CCC(SCc2ccccc2)C(=O)N1 (stereo unspecified) | < 4.00
57 | CC(=O)Nc1ccc(SCC2CCC(=O)NC2=O)cc1 (stereo unspecified) | 4.42
58 | O=C1CCC(CSc2cccc([N+](=O)[O-])c2)C(=O)N1 (stereo unspecified) | 4.80
59 | O=C1CCC(CS(=O)(=O)c2ccc(Cl)cc2)C(=O)N1 (stereo unspecified) | 5.17
60 | O=C1CCC(CSc2ccccc2[N+](=O)[O-])C(=O)N1 (stereo unspecified) | 4.89
61 | O=C1CCC(CSc2ccccc2C(=O)O)C(=O)N1 (stereo unspecified) | < 4.00
62 | Nc1ccccc1SCC1CCC(=O)NC1=O (stereo unspecified) | 4.49
63 | Cc1ccc(S(=O)(=O)CC2CCC(=O)NC2=O)cc1 (stereo unspecified) | 5.28
64 | O=C1CCC(CSCc2ccccc2)C(=O)N1 (stereo unspecified) | < 4.00
65 | O=C1CCC(CSc2ccccn2)C(=O)N1 (stereo unspecified) | 4.56
66 | Nc1cccc(SCC2CCC(=O)NC2=O)c1 (stereo unspecified) | 4.39
